Laboratory results taken from patent US20020006436A1, “USE OF A LIQUID CRYSTALLINE PHASE FOR DETERMINING THE DISTRIBUTION OF A CHEMICAL SUBSTANCE BETWEEN A HYDROPHOBIC AND A HYDROPHILIC ENVIRONMENT” (priority 1996, published 2002).
Like-named read-outs stand apart in the source and are kept apart here.

Columns and labels:
[1] = Distribution of clomethiazole between glyceryl monooleate cubic phase bilayer and water phase (water or citrate buffer); format: physicochemical; details: 120 h; for Kbl/w, eq. (4) / kbl/w, eq. (4): fw=0.4
Description: The distribution of a substance X between lipids and water in the system is depicted by the following distribution coefficient.
Kbilayer/water=Kbl/w=[X]lipid/[X]water (1),
If both the water phase and the cubic phase are analyzed with reference to their content of the substance X the following distribution coefficient can be determined Kcubic phase/water=KQ/w=[X]Q/[X]w (3), in which [X]Q is the concentration of X in the cubic phase. A relationship between Kbl/w and KQ/w can be derived if the volumetric portion of water in the cubic phase as well as the concentration of X in the water domain of the cubic phase are known. The former can be determined by means of X-ray diffraction. If it is assumed that the concentration of X in the water domain in the cubic phase is [X]w, i.e. the same as in the water phase, the following relationship can be obtained […]
Kbl/w={KQ/w−fw}/{1−fw} (4) in which fw is a volumetric portion of water in the cubic phase.
Clomethiazole (CMZ) is a drug which at a low pH exists in a charged state and at a high pH in a neutral stage. Glyceryl monooleate (Grindsted/Danisco A/S, Brabrand, Denmark), 0.74 ml, was added to each of six vials. Then 0.3 ml water was added to three of the vials, and 0.3 ml citrate buffer, pH 3.4, was added to the remaining three vials. The cubic phase was allowed to be formed overnight. Then 1.0 ml of solutions with different concentrations of CMZ were added to each of the vials.
The contents were analyzed after 120 h with reference to CMZ in the water phase as well as the cubic phase. In this example the constants were vlipid=0.74 ml, v1=0.3 ml, v2=1.0 ml, and fw=0.4. The distribution coefficients Kbl/w were calculated by means of the equations (2) and (4).

[2] = Distribution of lidocaine, cubic phase/water, water solution added after the cubic phase has been formed; format: physicochemical; details: for [X]w: cubic phase formed 24 h at 37° C., then further 24 h
[3] = Distribution of lidocaine, cubic phase/water, simultaneous addition of all the water solution; format: physicochemical; details: for [X]w: 24 h; for [X]w / Kbl/w: simultaneous addition
Description: wherein [X]lipid/[X]water is the concentration of a substance X in the lipid and the water portion of the system, respectively. In order to be able to determine Kbl/w several methods can be applied. […] Kbl/w ={[…] which [X]w is the concentration of X in the water phase at equilibrium. […] Then 0.5 ml of the respective buffer solution was added to the vials.

[4] = for [X]w: 72 h; for Kbl/w: equation 2, 72 h
Excerpt: wherein [X]lipid/[X]water is the concentration of a substance X in the lipid and the water portion of the system, respectively. In order to be able to determine Kbl/w several methods can be applied. If vlipid is the lipid volume, v1 is the volume of water solution without the substance X, and v2 is the volume of water solution with the substance X in a concentration of [X]0 mol/liter, the distribution coefficient can be expressed as
Kbl/w ={v2([X]0−[X]w)/[X]w−v1}/vlipid (2),
in which [X]w is the concentration of X in the water phase at equilibrium. Equation 2 can be used if only the water phase and not the lipid phase is analyzed with reference to its content of X.
Glyceryl monooleate, 2 ml, was weighed into three vials, 6 ml of a water solution with 0.033, 0.067, or 0.10 mol NaCl per liter then being added to one of the three vials.
After 72 h the NaCl contents in the three vials were determined by means of conductometrical analysis of the water phases. In this example the constants were vlipid=2 ml, v1=0 ml, and v2=6 ml. The distribution coefficient Kbl/w was calculated by means of equation 2.

[5] = citrate buffer pH 3.4, system I, [X]0 0.28 mg/ml
[6] = citrate buffer pH 3.4, system II, [X]0 1.5 mg/ml
[7] = citrate buffer pH 3.4, system III, [X]0 3.0 mg/ml
[8] = water, system I, [X]0 0.28 mg/ml
[9] = water, system II, [X]0 1.5 mg/ml
[10] = water, system III, [X]0 3.0 mg/ml

SMILES: Cc1ncsc1CCCl [Clomethiazole]
- Kbl/w, eq. (2) [1, 5]: 28.4
- [X]w, concentration in the water phase at equilibrium [1, 5]: 0.014 mg/mL
- citrate, [X]Q, concentration in the cubic phase [1, 5]: 0.243 mg/mL
- Kbl/w, eq. (4) [1, 5]: 28.2
- Kbl/w, eq. (2) [1, 6]: 32.0
- [X]w, concentration in the water phase at equilibrium [1, 6]: 0.067 mg/mL
- citrate, [X]Q, concentration in the cubic phase [1, 6]: 1.188 mg/mL
- Kbl/w, eq. (4) [1, 6]: 28.9
- Kbl/w, eq. (2) [1, 7]: 31.5
- [X]w, concentration in the water phase at equilibrium [1, 7]: 0.136 mg/mL
- citrate, [X]Q, concentration in the cubic phase [1, 7]: 2.366 mg/mL
- Kbl/w, eq. (4) [1, 7]: 28.3
- Kbl/w, eq. (2) [1, 8]: 57.0
- [X]Q, concentration in the cubic phase [1, 8]: 0.243 mg/mL
- [X]w, concentration in the water phase at equilibrium [1, 8]: 0.0072 mg/mL
- kbl/w, eq. (4) [1, 8]: 55.6
- Kbl/w, eq. (2) [1, 9]: 57.9
- [X]Q, concentration in the cubic phase [1, 9]: 1.286 mg/mL
- [X]w, concentration in the water phase at equilibrium [1, 9]: 0.038 mg/mL
- kbl/w, eq. (4) [1, 9]: 55.7
- Kbl/w, eq. (2) [1, 10]: 57.9
- [X]Q, concentration in the cubic phase [1, 10]: 2.463 mg/mL
- [X]w, concentration in the water phase at equilibrium [1, 10]: 0.076 mg/mL
- kbl/w, eq. (4) [1, 10]: 53.3

SMILES: CCN(CC)CC(=O)Nc1c(C)cccc1C [Lidocaine]
- [X]w ([2]; pH 4, [X]0 1.00 mg/ml): 0.66 mg/mL
- Kbl/w ([2]; pH 4, equation 2, solution added after cubic phase formed): 0.8
- [X]w ([2]; pH 7, [X]0 1.00 mg/ml): 0.22 mg/mL
- Kbl/w ([2]; pH 7, equation 2, solution added after cubic phase formed): 8.4
- [X]w ([2]; pH 10, [X]0 1.00 mg/ml): 0.073 mg/mL
- Kbl/w ([2]; pH 10, equation 2, solution added after cubic phase formed): 31.2
- Kbl/w(charged) ([3]; charged form, from pH 4): 0.7
- [X]w ([3]; pH 4, [X]0 1.00 mg/ml): 0.68 mg/mL
- Kbl/w ([3]; pH 4, equation 2, 24 h): 0.7
- [X]w ([3]; pH 7, [X]0 1.00 mg/ml): 0.21 mg/mL
- Kbl/w ([3]; pH 7, equation 2, 24 h): 8.9
- [X]w ([3]; pH 10, [X]0 1.00 mg/ml): 0.073 mg/mL
- Kbl/w ([3]; pH 10, equation 2, 24 h): 31.2
- Kbl/w(uncharged) ([3]; uncharged form, from pH 10): 31.2

SMILES: [Cl-].[Na+] [NaCl]
- [X]w ([4]; [X]0 0.033 mol/liter): 0.036 mol/L
- Kbl/w ([4]; [X]0 0.033 mol/liter): −0.25
- [X]w ([4]; [X]0 0.067 mol/liter): 0.071 mol/L
- Kbl/w ([4]; [X]0 0.067 mol/liter): −0.17
- [X]w ([4]; [X]0 0.100 mol/liter): 0.106 mol/L
- Kbl/w ([4]; [X]0 0.100 mol/liter): −0.17
